Calls of active or inactive are those of the source. The rule behind the calls is not given here.
How the values were obtained:
MDA-MB-231 [1] = assay: Induction of apoptosis in human MDA-MB-231 cells assessed as late apoptotic cells after 24 hrs by Annexin-V FITC/propidium iodide staining based flow cytometric analysis (reference value: 1.28%); format: cell-based; settings: mda-mb-231, 24 h
[2] = Drug uptake in heart of BALB/c mouse xenografted with mouse 4T1 cells at 10 mg/kg, iv measured at 12 hrs post injection by IVIS spectrum imaging; format: ADME, organism-based; settings: in vivo
MDA-MB-231 [3] = assay: Induction of apoptosis in human MDA-MB-231 cells assessed as early apoptotic cells after 24 hrs upon light irradiation by Annexin-V FITC/propidium iodide staining based flow cytometric analysis (reference value: 1.22%); format: functional
4T1 [4] = assay: Antitumor activity against mouse 4T1 cells xenografted in BALB/c mouse assessed as inhibition of tumor volume at 1 mg/kg, iv pretreated for 24 hrs followed by 50 J/cm2 light irradiation and measured at day 22 post dose relative to control; format: functional; settings: 4T1, light or radiation study
[5] = Drug uptake in tumor of BALB/c mouse xenografted with mouse 4T1 cells at 10 mg/kg, iv measured at 12 hrs post injection by IVIS spectrum imaging; format: ADME, organism-based, Neoplasm; settings: in vivo
Mus musculus [6] = assay: Toxicity in BALB/c mouse xenografted with mouse 4T1 cells assessed as pathological changes in spleen at 4 mg/kg, iv measured at day 22 post dose by hematoxylin and eosin staining based light microscopic analysis; format: organism-based; settings: in vivo
Mus musculus [7] = assay: Toxicity in BALB/c mouse xenografted with mouse 4T1 cells assessed as pathological changes in lung at 1 to 4 mg/kg, iv pre-tretaed for 24 hrs followed by 50 J/cm2 light irradiation and measured at day 22 post dose by hematoxylin and eosin staining based light microscopic analysis; format: organism-based; settings: in vivo
[8] = Dark toxicity against mouse 4T1 cells assessed as cell viability at 0.5 uM after 24 hrs by MTT assay; format: cell-based; settings: 4t1, 24 h
Mus musculus [9] = assay: Toxicity in BALB/c mouse xenografted with mouse 4T1 cells assessed as effect on body weight at 4 mg/kg, iv measured at day 22 post last dose; format: organism-based; settings: in vivo
MDA-MB-231 [10] = assay: Induction of ROS generation in human MDA-MB-231 cells incubated with DCF-DA probe for 30 mins followed by 2 J/cm2 light irradiation and measured after 1 hr by flow cytometric analysis (reference value: 2.1%); format: functional
4T1 [11] = assay: Induction of apoptosis in mouse 4T1 cells xenografted in BALB/c mouse at 4 mg/kg, iv pretreated for 24 hrs followed by 50 J/cm2 light irradiation by TUNEL assay; format: functional, organism-based
MDA-MB-231 [12] = assay: Induction of ROS generation in human MDA-MB-231 cells incubated with DCF-DA probe for 30 mins by flow cytometric analysis (reference value: 2.1%); format: cell-based; settings: mda-mb-231, 0.5 h
4T1 [13] = assay: Induction of apoptosis in mouse 4T1 cells xenografted in BALB/c mouse at 4 mg/kg, iv after 24 hrs by TUNEL assay; format: functional, organism-based
[14] = Drug uptake in kidney of BALB/c mouse xenografted with mouse 4T1 cells at 10 mg/kg, iv measured at 12 hrs post injection by IVIS spectrum imaging; format: ADME, organism-based; settings: in vivo
Mus musculus [15] = assay: Nephrotoxicity in BALB/c mouse xenografted with mouse 4T1 cells assessed as pathological changes in kidney at 4 mg/kg, iv measured at day 22 post dose by hematoxylin and eosin staining based light microscopic analysis; format: toxicity, organism-based; settings: in vivo
[16] = Selectivity index, ratio of dark toxicity against human MDA-MB-231 cells at 0.5 uM to phototoxicity against human MDA-MB-231 cells at 0.5 uM; format: cell-based; settings: read-out: Selectivity Index
Mus musculus [17] = assay: Toxicity in BALB/c mouse xenografted with mouse 4T1 cells assessed as effect on body weight at 2 mg/kg, iv pre-tretaed for 24 hrs followed by 50 J/cm2 light irradiation and measured at day 22 post dose; format: organism-based; settings: in vivo
[18] = Drug uptake in spleen of BALB/c mouse xenografted with mouse 4T1 cells at 10 mg/kg, iv measured at 12 hrs post injection by IVIS spectrum imaging; format: ADME, organism-based; settings: in vivo
MDA-MB-231 [19] = assay: Induction of apoptosis in human MDA-MB-231 cells assessed as viable cells after 24 hrs upon light irradiation by Annexin-V FITC/propidium iodide staining based flow cytometric analysis (reference value: 93.27%); format: functional
[20] = Drug uptake in human MDA-MB-231 cells at 5 uM by flow cytometric analysis; format: ADME, cell-based; settings: mda-mb-231, 5 µM, TDE = time-dependent effect
[21] = Induction of singlet oxygen generation in cell free condition upon 635 nm semiconductor laser light irradiation by singlet oxygen sensor green dye based fluorescence spectrophotometeric analysis; format: functional
MDA-MB-231 [22] = assay: Phototoxicity against human MDA-MB-231 cells assessed as cell viability incubated with ROS scavenger NAC 1 hr before 2 J/cm2 light irradiation by MTT assay relative to control; format: functional
[23] = Tmax in tumor of BALB/c mouse xenografted with mouse 4T1 cells at 10 mg/kg, iv measured after […] by fluorescence assay; format: ADME, organism-based, Neoplasm
[24] = Drug uptake in lung of BALB/c mouse xenografted with mouse 4T1 cells at 10 mg/kg, iv measured at 12 hrs post injection by IVIS spectrum imaging; format: ADME, organism-based; settings: in vivo
[25] = Dark toxicity against human MDA-MB-231 cells assessed as cell viability at 0.5 uM after 24 hrs by MTT assay; format: cell-based; settings: mda-mb-231, 24 h
4T1 [26] = assay: Antitumor activity against mouse 4T1 cells xenografted in BALB/c mouse at 4 mg/kg, iv preincubated for 24 hrs and measured at day 22 post dose; format: functional, organism-based
[27] = Drug uptake in tumor of BALB/c mouse xenografted with mouse 4T1 cells at 10 mg/kg, iv measured up to 3 to 24 hrs post injection by fluorescence assay; format: ADME, organism-based, Neoplasm; settings: in vivo
MDA-MB-231 [28] = assay: Induction of ROS generation in human MDA-MB-231 cells incubated with DCF-DA probe for 30 mins followed by 2 J/cm2 light irradiation and measured after 1 hr by flow cytometric analysis (reference value: 5.81%); format: functional
MDA-MB-231 [29] = assay: Induction of ROS generation in human MDA-MB-231 cells incubated with DCF-DA probe for 30 mins by flow cytometric analysis (reference value: 5.81%); format: cell-based; settings: mda-mb-231, 0.5 h

| Structure (SMILES) | Activity (MDA-MB-231 [1]) [%] | Drug uptake [2] | Activity (MDA-MB-231 [3]) [%] | inhibition in vivo at 1 mg/kg (4T1 [4]) [%] | Drug uptake [5] | Activity (Mus musculus [6]) | Activity (Mus musculus [7]) | Activity [8] | Activity (Mus musculus [9]) | Activity (4T1 [11]) | Activity (4T1 [13]) | Drug uptake [14] | Activity (Mus musculus [15]) | selectivity ratio at 0.5 µM [16] | Activity (Mus musculus [17]) | Drug uptake [18] | Activity (MDA-MB-231 [19]) [%] | Drug uptake [20] | Activity [21] | Activity (MDA-MB-231 [22]) [%] | other results |
| --- | --- | --- | --- | --- | --- | --- | --- | --- | --- | --- | --- | --- | --- | --- | --- | --- | --- | --- | --- | --- | --- |
| C=CC1=C(C)c2cc3[nH]c(cc4nc(cc5[nH]c(cc1n2)c(C)c5CCC(=O)[O-])C(CCC(=O)[O-])=C4C)c(C)c3C(C)OCCCCCC.[Na+].[Na+] (stereo not drawn) | 2.73 | Not Active | 7.17 | 15.4 | Active | Non-Toxic | Non-Toxic | Non-Toxic | Non-Toxic | Active | inactive | Not Active | Non-Toxic | 59.6 | Non-Toxic | Not Active | 41.63 | Tde | Dose-dependent effect | >80 | Activity (MDA-MB-231 [10]): 46.7%; Activity (MDA-MB-231 [12]): 2.21%; Tmax [23]: 12 h; Drug uptake [24]: Not Active; Activity [25]: Non-Toxic; Activity (4T1 [26]): inactive; Drug uptake [27]: Active |
| C=Cc1c(C)c2cc3nc(cc4[nH]c(cc5nc(cc1[nH]2)C(C)=C5C(C)OCCCCCC)c(C)c4CCC(=O)[O-])C(CCC(=O)[O-])=C3C.[Na+].[Na+] (stereo not drawn) | 2.34 | Not Active | 3.82 | 27.8 | Active | Non-Toxic | Non-Toxic | Non-Toxic | Non-Toxic | Active | inactive | Not Active | Non-Toxic | 161 | Non-Toxic | Not Active | 32.52 | Tde | Dose-dependent effect | >80 | Activity (MDA-MB-231 [28]): 87.84%; Activity (MDA-MB-231 [29]): 6.34%; Tmax [23]: 12 h; Drug uptake [24]: Not Active; Activity [25]: Non-Toxic; Drug uptake [27]: Active |

— ChEMBL document CHEMBL4229478, “Synthesis, Characterization, and Biological Evaluation of a Porphyrin-Based Photosensitizer and Its Isomer for Effective Photodynamic Therapy against Breast Cancer” (J Med Chem, 2018)
